Earlier results in patent US20120121615A1, “ALANINYL MAYTANSINOL ANTIBODY CONJUGATES” (priority 2010, published 2012).

Compound: COc1cc2cc(c1Cl)N(C)C(=O)C[C@H](OC(=O)[C@H](C)N(C)C(C)=O)[C@]1(C)O[C@H]1[C@H](C)[C@@H]1C[C@@](O)(NC(=O)O1)[C@H](OC)/C=C/C=C(\C)C2 [maytansine]
- dose-limiting toxicity (DLT) (2.0 mg/m^2 every 3 weeks, single dose or 3 consecutive days): gastrointestinal, consisting of nausea, vomiting, and diarrhea
- activity in the clinic (at doses that could be safely delivered): modest
